# What was measured:
# Type in all cases: functional
# Ecdysone receptor = target: T1, Ecdysone receptor (Aedes aegypti, UniProt P49880); test: Effective concentration for ecdysone-dependent transactivation in mammalian cell line expressing Aedes aegypti ecdysone receptor
# T1 sequence (P49880 whole entry): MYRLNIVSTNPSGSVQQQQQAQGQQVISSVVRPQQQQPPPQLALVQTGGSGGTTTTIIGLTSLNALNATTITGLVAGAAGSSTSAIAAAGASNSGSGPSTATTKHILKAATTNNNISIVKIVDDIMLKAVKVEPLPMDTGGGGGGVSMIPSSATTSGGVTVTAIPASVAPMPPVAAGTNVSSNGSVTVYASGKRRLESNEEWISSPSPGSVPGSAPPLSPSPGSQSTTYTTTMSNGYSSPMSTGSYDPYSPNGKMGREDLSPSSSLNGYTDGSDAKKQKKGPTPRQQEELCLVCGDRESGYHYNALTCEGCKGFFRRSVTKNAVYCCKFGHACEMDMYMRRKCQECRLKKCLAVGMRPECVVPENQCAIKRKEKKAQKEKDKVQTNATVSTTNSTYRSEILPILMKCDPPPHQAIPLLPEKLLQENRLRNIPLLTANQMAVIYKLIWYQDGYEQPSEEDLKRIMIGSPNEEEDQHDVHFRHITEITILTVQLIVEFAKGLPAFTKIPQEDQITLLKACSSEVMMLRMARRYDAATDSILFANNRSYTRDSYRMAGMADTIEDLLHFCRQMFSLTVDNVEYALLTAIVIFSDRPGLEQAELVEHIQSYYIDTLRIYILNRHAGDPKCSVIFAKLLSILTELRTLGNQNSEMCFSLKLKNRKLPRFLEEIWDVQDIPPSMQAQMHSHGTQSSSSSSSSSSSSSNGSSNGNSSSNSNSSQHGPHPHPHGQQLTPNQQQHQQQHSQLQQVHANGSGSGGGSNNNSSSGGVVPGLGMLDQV
# [1] = target: T2, Ecdysone receptor (Aedes aegypti) (UniProt P49880); test: Fold induction of ecdysone-dependent transactivation in mammalian cell line expressing Aedes aegypti ecdysone receptor at 33 uM
# T2 sequence (whole entry): T1 sequence (P49880 whole entry)
# [2] = target: T2, Ecdysone receptor (Aedes aegypti); test: Ratio of maximal ecdysone-dependent transactivation in cell line expressing Aedes aegypti ecdysone receptor compared to cpd2
Compound,EC50 (Ecdysone receptor) [µM],Fold induction [1],Rel Max FI [2]
C[C@@H]1C[C@H](Nc2ccc(F)cc2)c2cc(F)ccc2N1C(=O)c1ccc(C(F)(F)F)cc1,0.92,230,0.63
C[C@@H]1C[C@H](Nc2ccc(F)cc2)c2cc(F)ccc2N1C(=O)c1cccc(F)c1,0.99,204,0.57
C[C@@H]1C[C@H](Nc2ccc(F)cc2)c2cc(F)ccc2N1C(=O)c1ccccc1F,3,78,0.28
Cc1ccc(N[C@H]2C[C@@H](C)N(C(=O)c3ccc(Cl)cc3)c3ccc(C)cc32)cc1,2.15,43,0.39
COc1cccc(C(=O)N2c3ccccc3[C@@H](Nc3ccccc3)C[C@H]2C)c1,0.7,9,0.15
CCc1c(OC)cccc1C(=O)NN(C(=O)c1cc(C)cc(C)c1)C(C)(C)C,0.44,–,–
C[C@@H]1C[C@H](Nc2ccccc2)c2ccccc2N1C(=O)c1cccc(F)c1,0.75,75,0.44
Cc1ccc(N[C@H]2C[C@@H](C)N(C(=O)c3ccccc3C)c3ccc(C)cc32)cc1,8.71,19,0.04
Cc1ccc(N[C@H]2C[C@@H](C)N(C(=O)c3ccccc3F)c3ccc(C)cc32)cc1,> 33.3,5,0.01
COc1ccccc1C(=O)N1c2ccc(F)cc2[C@@H](Nc2ccc(F)cc2)C[C@H]1C,> 33.3,4,0.01
C[C@@H]1C[C@H](Nc2ccc(F)cc2)c2cc(F)ccc2N1C(=O)c1ccc(Cl)cc1,0.64,212,0.7
C[C@@H]1C[C@H](Nc2ccccc2)c2ccccc2N1C(=O)c1ccc(Cl)cc1,0.98,130,0.43
C[C@@H]1C[C@H](Nc2ccccc2)c2ccccc2N1C(=O)c1ccccc1C(F)(F)F,–,1,–
COc1cccc(C(=O)N2c3ccc(C)cc3[C@@H](Nc3ccc(C)cc3)C[C@H]2C)c1,> 33.3,3,0.01
Cc1ccc(C(=O)N2c3ccc(F)cc3[C@@H](Nc3ccc(F)cc3)C[C@H]2C)cc1,0.87,91,0.67
Cc1ccc(N[C@H]2C[C@@H](C)N(C(=O)c3ccc(C(F)(F)F)cc3)c3ccc(C)cc32)cc1,4.41,69,0.23
COc1cccc(C(=O)N2c3ccc(F)cc3[C@@H](Nc3ccc(F)cc3)C[C@H]2C)c1,1.48,119,0.98
C[C@@H]1C[C@H](Nc2ccc(F)cc2)c2cc(F)ccc2N1C(=O)c1cccc(C(F)(F)F)c1,1,89,0.93
Cc1cccc(C(=O)N2c3ccc(F)cc3[C@@H](Nc3ccc(F)cc3)C[C@H]2C)c1,1.36,686,0.55
C[C@@H]1C[C@H](Nc2ccccc2)c2ccccc2N1C(=O)c1ccccc1,1.12,20,0.07

# The remaining lines, values ahead:
EC50 (Ecdysone receptor) [µM],Fold induction [1],Rel Max FI [2],Compound
1.18,89,0.64,C[C@@H]1C[C@H](Nc2ccccc2)c2ccccc2N1C(=O)c1ccc(C(F)(F)F)cc1
1.43,64,0.44,COc1ccc(C(=O)N2c3ccccc3[C@@H](Nc3ccccc3)C[C@H]2C)cc1
1.21,28,0.42,C[C@@H]1C[C@H](Nc2ccccc2)c2ccccc2N1C(=O)c1cccc(C(F)(F)F)c1
–,0,–,COc1ccccc1C(=O)N1c2ccc(C)cc2[C@@H](Nc2ccc(C)cc2)C[C@H]1C
3.19,158,0.5,Cc1ccccc1C(=O)N1c2ccc(F)cc2[C@@H](Nc2ccc(F)cc2)C[C@H]1C
5.4,35,0.19,Cc1ccc(N[C@H]2C[C@@H](C)N(C(=O)c3ccccc3)c3ccc(C)cc32)cc1
> 33.3,12,0.04,Cc1ccc(N[C@H]2C[C@@H](C)N(C(=O)c3ccccc3C(F)(F)F)c3ccc(C)cc32)cc1
> 33.3,6,0.01,Cc1ccc(N[C@H]2C[C@@H](C)N(C(=O)c3cccc(C)c3)c3ccc(C)cc32)cc1
5,121,0.26,Cc1ccc(N[C@H]2C[C@@H](C)N(C(=O)c3ccc(C)cc3)c3ccc(C)cc32)cc1
1.14,110,0.87,COc1ccc(C(=O)N2c3ccc(F)cc3[C@@H](Nc3ccc(F)cc3)C[C@H]2C)cc1
11,64,0.32,C[C@@H]1C[C@H](Nc2ccc(F)cc2)c2cc(F)ccc2N1C(=O)c1ccccc1C(F)(F)F
1.84,12,0.47,Cc1ccc(N[C@H]2C[C@@H](C)N(C(=O)c3cccc(C(F)(F)F)c3)c3ccc(C)cc32)cc1
1.73,283,0.76,C[C@@H]1C[C@H](Nc2ccc(F)cc2)c2cc(F)ccc2N1C(=O)c1ccccc1
3,102,0.27,Cc1ccc(N[C@H]2C[C@@H](C)N(C(=O)c3cccc(F)c3)c3ccc(C)cc32)cc1
0.99,64,0.42,Cc1ccc(C(=O)N2c3ccccc3[C@@H](Nc3ccccc3)C[C@H]2C)cc1
5.32,57,0.09,COc1ccc(C(=O)N2c3ccc(C)cc3[C@@H](Nc3ccc(C)cc3)C[C@H]2C)cc1

# — ChEMBL document CHEMBL1136529, “Synthesis and SAR of cis-1-benzoyl-1,2,3,4-tetrahydroquinoline ligands for control of gene expression in ecdysone responsive systems” (Bioorg Med Chem Lett, 2003)
